{"source": "BindingDB's records for doi:10.7270/Q2WS8RN8", "about": "(The Scripps Research Institute Molecular Screening Center, 2008)", "target": "T1, Signal transducer and activator of transcription 1-alpha/beta (Homo sapiens, UniProt P42224)", "T1 sequence (P42224 whole entry)": "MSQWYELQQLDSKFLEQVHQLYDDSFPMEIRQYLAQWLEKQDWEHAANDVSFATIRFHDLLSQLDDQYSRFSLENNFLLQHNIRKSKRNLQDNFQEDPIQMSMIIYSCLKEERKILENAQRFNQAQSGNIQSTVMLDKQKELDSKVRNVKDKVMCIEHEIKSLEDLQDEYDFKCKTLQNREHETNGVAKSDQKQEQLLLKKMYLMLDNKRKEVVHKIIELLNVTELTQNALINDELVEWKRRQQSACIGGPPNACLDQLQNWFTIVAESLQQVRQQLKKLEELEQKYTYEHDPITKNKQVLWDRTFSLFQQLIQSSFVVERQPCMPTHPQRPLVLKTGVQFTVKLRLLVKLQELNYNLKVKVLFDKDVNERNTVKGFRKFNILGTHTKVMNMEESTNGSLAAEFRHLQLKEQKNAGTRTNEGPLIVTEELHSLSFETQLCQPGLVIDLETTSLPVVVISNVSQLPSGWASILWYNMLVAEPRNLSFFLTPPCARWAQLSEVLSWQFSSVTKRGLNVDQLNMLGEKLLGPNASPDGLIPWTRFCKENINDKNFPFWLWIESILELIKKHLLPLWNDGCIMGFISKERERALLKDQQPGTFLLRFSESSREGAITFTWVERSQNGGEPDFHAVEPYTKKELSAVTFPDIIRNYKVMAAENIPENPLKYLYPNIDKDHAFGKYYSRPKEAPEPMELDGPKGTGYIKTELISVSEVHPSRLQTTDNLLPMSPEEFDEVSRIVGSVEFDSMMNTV", "test": "PubChem AID 1396", "data": [{"smiles": "CCN1C(=O)C(=CNNC(=O)c2ccncc2)C(=O)N(CC)C1=S", "note": "[SMR000218837]", "values": [{"measurement": "IC50", "value": 4.42, "unit": "µM"}]}]}
